In data set [1] the test system is blood pressure of Wistar male rats. In words: Blood pressure in anesthetized rats. It counts as in vivo. The note with it: rat, intrathecal; doses 1, 3, 10, 30 nmol. From the text: Wistar male rats weighing 200-250 g. After urethane (1.3 g/kg) anesthesia, the trachea was cut to prevent suffocation. The femoral was isolated and a PE-10 artery cannula was inserted in an insertion depth of approximately 2 cm. The arterial cannula was connected to a pressure transducer PT-100, and the PT-100 was connected to a biofunctional experiment BL-420F system to record mean arterial pressure and pulsatile arterial pressure. An additional PE-10 was inserted from the lumbar vertebra L4-L5 and inserted 3 cm along the subarachnoid space up to the spine T12-L1 for intrathecal administration. After the surgery, the rats were allowed to stabilize for 30 min. Then, intrathecal administration of physiological saline or different doses of the drug, the dose of the drug was from small to large, and each dose interval was more than 40 min. Changes in blood pressure of the rats after administration were recorded.
The experimental results of cardiovascular regulation in rats were expressed as changes in blood pressure, and the relevant data were expressed as mean±standard error (Means±S.E.M.), Differences between groups treated with different drug concentrations were analyzed by one-way ANOVA (Bonferroni test in one-way ANOVA) for data statistics and analysis.

The test system of data set [2] is visceral pain induced by intraperitoneal injection of acetic acid solution in mice. The data set is described as follows: Acetic acid writhing visceral pain model. It counts as in vivo, mouse. As for the experimental part:
The mice were placed in a transparent polymethyl methacry late box (20×20×30 cm) and adapted to the environment for 10-15 min; after the adaptation, compound 9 was administered intrathecally, intraperitoneally or subcutaneously to the mice. After 5 min, the mice were intraperitoneally injected with 10 ml/kg of 0.6% acetic acid solution, 5 min. after the intraperitoneal injection of acetic acid solution, the writhing response of the mice was recorded for 10 min. The mice developed characteristic reactions such as twisting of the trunk, concave in the abdomen, elevation of the buttocks and extension of the hind limbs, which were recorded as a writhing reaction.
The experimental data was expressed by MPE (maximum possible effect), MPE (%)=100×[(the number of writhing bodies in the physiological saline group− the number of writhing bodies in the drug group)/the number of writhing bodies in the physiological saline group]. The relevant MPE data were expressed as mean±standard error (Means±S.E.M.), the data for differences between groups treated with different drug concentrations were analyzed by one-way ANOVA (Bonferroni test in one-way ANOVA) for statistics and analysis, ***P<0.001 represents that there was a significant difference between the MPE value of the drug-treated group and that of the saline group.

The test system of data set [3] is CCI-induced neuralgia in mouse. The data set is described as follows: Analgesic tolerance and cross-tolerance in CCI-induced neuralgia. The class given is in vivo. As for the experimental part:
CCI-induced neuralgia in mouse was detected using a PL-200 thermal tingling instrument and an electronic Von Frey tenderness instrument. The thermal pain threshold of one group of normal mice and the mechanical pain threshold of another group of normal mice were first determined. The mice were then anesthetized with sodium pentobarbital 80 mg/kg mouse body weight) and the mice were fixed in the prone position. The right sciatic nerve was exposed and 3 mild ligation rings were made around the sciatic nerve using a 4-0 chromic catgut, 1 mm intervals. The ligation intensity is preferably a slight tremor in the right hind leg. On the 10th day after surgery, the thermal pain sensitivity value and mechanical pain sensitivity value of the right hind paw of the two groups of mice were determined. Compound 9 or morphine was then administered subcutaneously for seven consecutive days, and compound 9 was given to mice in the morphine group on day 8. The thermal tingling and mechanical pain thresholds at different time points after administration were recorded.
The experimental data were expressed as mean±standard error (Means±S.E.M.). Data for differences between groups treated with the same drug were analyzed by one-way ANOVA (Tukey HSD test of one-way ANOVA) for statistics and analysis, *P<0.05. **P<0.01, ***P<0.001 indicates a significant difference between the pain threshold of the drug-treated group and the pain threshold after the First day of administration.

The test system of data set [4] is movement activity of mice. In words: Movement activity, open field experiment. The class given is in vivo, mouse. The note with it: subcutaneous 10 mg/kg. The method, then: The movement activity of the mice was tested by open field experiments. The experimental device is consisted of a 50×50×50 cm topless black plexiglass box and a movement monitoring system. The experiment was carried out in a soundproof environment with an indoor temperature being controlled at 22±1° C. After the experiment was started, the mice were first recorded for free movement within 30 minutes, and then compound 9 or morphine was administered subcutaneously, the movement of the mice was detected for another 150 minutes. Before the experiment for each mouse was started, the whole box was wiped with alcohol as a whole to exclude the residual odor of the previous mouse from affecting the accuracy of the data.
The experimental data were expressed as mean±standard error (Means±S.E.M.), and the data for differences between groups treated with different drugs were analyzed by one-way ANOVA (Bonferroni test in one-way ANOVA) for statistics and analysis, ***P<0.001 represents that there was a significant difference between the movement activity of the drug-treated group and that of the saline group.

The test system of data set [5] is mice. In words: Naloxone withdrawal test. It counts as in vivo, mouse. The note with it: s.c. at 8 hours intervals 20, 40, 60, 80, 100, 100, 100 mg/kg; naloxone 1 mg/kg; 30 minutes.
Data set [6] relates to neuralgia induced by chronic compression of the sciatic nerve in mice. In words: CCI neuralgia model (thermal and mechanical pain). It counts as in vivo, mouse. As for the experimental part:
The chronic compression model of the sciatic nerve (CCI) was mainly used for the mouse neuralgia. The detection method uses thermal tingling instrument and electronic Von Frey tenderness instrument to simultaneously detect thermal pain and mechanical pain. Firstly, the basic pain threshold of thermal pain and mechanical pain in normal mice were determined respectively. The mice were then anesthetized with sodium pentobarbital (i.p., 80 mg/kg mouse body weight) and the mice were fixed in the prone position. The right sciatic nerve was exposed and 3 mild ligation rings were made around the sciatic nerve using a 4-0 chromic catgut, 1 mm intervals. The ligation intensity is preferably a slight tremor in the right hind leg. On the 10th day after surgery, the thermal pain sensitivity value of the right hind paw of the mouse was measured, and then compound 9 was intrathecally or subcutaneously administered, and the thermal pain threshold at different time points after administration were recorded. On the 11th day after surgery, the mechanical pain sensitivity value of the right hind paw of the mouse was measured, and then Compound 9 was intrathecally or subcutaneously administered, and the mechanical pain threshold at different time points after administration were recorded.
The experimental data were expressed as mean±standard error (Means±S.E.M.), and the data for differences between groups treated with different drug concentrations were analyzed by one-way ANOVA (Bonferroni test in one-way ANOVA) for statistics and analysis, **P<0.01, ***P<0.001 represents that there was a significant difference between the pain threshold value of the drug-treated group and that of the saline group.
First, the maximum analgesic effect (MPE) was calculated, MPE (%)=100×[(pain threshold after administration−pain sensitivity value of the hind paw in surgical side)/(basic pain threshold−pain sensitivity value of the hind paw in surgical side)].

[7] abbreviates: subcutaneous, seven consecutive days.

Square brackets hold non-standard residues; d marks the D form. Peptide text beside a SMILES is read from it. NMeF = CN[C@@H](Cc1ccccc1)C(=O)O

Experimental findings from US11167006B2 (Shanghai Tianci Life Science Development Co., Ltd., priority 2016, dated 2021) are described below.

As for `C[C@@H](NC(=O)[C@@H](N)Cc1ccc(O)cc1)C(=O)NCC(=O)N(C)[C@@H](Cc1ccccc1)C(=O)NCC(=O)N1CCC[C@H]1C(=O)N[C@@H](CCC(N)=O)C(=O)N[C@@H](CCCNC(=N)N)C(=O)N[C@@H](Cc1ccccc1)C(N)=O` [Compound 9, Tyr-D-Ala-Gly-NMe-Phe-Gly-Pro-Gln-Arg-Phe-NH2] (H-Y[dA]G[NMeF]GPQRF-NH2), in data set [1], the “dose producing a significant blood pressure-lowering effect” value was “more than 1 nmol”. The “ED50 value (95% confidence interval)” value in data set [2] (intraperitoneal (i.p.)) was 0.721 (0.594 to 0.875) mg/kg; in data set [2] (intrathecal (i.t.)), 0.657 (0.595 to 0.727) pmol; in data set [2] (subcutaneous (s.c.)), 0.789 (0.702 to 0.887) mg/kg. The “cross-tolerance between compound 9 and morphine” value in data set [3] (morphine-tolerant mice given compound 9 s.c. on day 8) is “no cross-tolerance”. Also, in data set [3] (setting [7]), the “analgesic tolerance on continuous injection, mechanical pain sensitivity” value is listed as “not significantly different from that obtained in the first day”. Moreover, the “analgesic tolerance on continuous injection, thermal sensitivity pain” value in data set [3] (setting [7]) is “not significantly different from that obtained in the first day”. The “total distance of movement” value in data set [4] is on record as 71.39 m. In data set [5], the “average number of jumps after naloxone withdrawal” value came out at 11.63. Moreover, the “analgesic ED50 value, thermal hyperalgesia” value is on record as 1.74 (1.38-2.20) pmol in data set [6] (intrathecal) and 3.12 (2.77-3.51) mg/kg in data set [6] (subcutaneous). Moreover, the “analgesic ED50 value, mechanical hyperalgesia” value in data set [6] (subcutaneous) is 3.51 (3.28-3.74) mg/kg.
